The test system of data set [1] is COLO 205. Briefly: MTS cell viability (cytotoxic activity) assay, COLO 205. It counts as cell-based, Human. As to conditions: Homo sapiens; COLO 205, MTS, 72 h; mean ± SD, at least three experiments. An excerpt:
(§1) Human colorectal cancer (COLO 205, CCL-222), breast cancer (MCF-7, HTB-22), chronic myelogenous leukemia (K-562, CCL-243), and umbilical vein/vascular endothelium (HUVEC, CRL-1730) cell lines were obtained from the American Type Culture Collection. The COLO 205, MCF-7, K-562, and HUVEC cell lines were maintained in Roswell Park Memorial Institute ([…], Wisent, Montreal, QC, CANADA), Eagle′s Minimum Essential Medium (EMEM, Wisent, Montreal, QC, CANADA), Iscove’s Modified Dulbecco’s Medium (IMDM, Wisent, Montreal, QC, CANADA), and Dulbecco′s Modified Eagle Medium (DMEM, Wisent, Montreal, QC, CANADA) supplemented with 10% fetal bovine serum (Capricorn, Ebsdorfergrund, Germany), 100 U/mL penicillin, and 100 µg/mL streptomycin (Wisent, Montreal, QC, CANADA), respectively. All of the cell lines were cultured at 37 °C in a humidified atmosphere containing 5% CO2.
(§2) A 3-[4,5-dimethylthiazol-2-yl]-5-[3-carboxymethoxyphenyl]-2-[4-sulfophenyl]-2H-tetrazolium, inner salt (MTS) cell viability assay was performed to evaluate the cytotoxic activities of the sesquiterpene coumarin ethers isolated from Ferula huber-morathii. HUVEC (1 × 10^4), COLO 205 (3 × 10^4), K-562 (3 × 10^4), and MCF7 (5 × 10^4) were plated in 96-well plates. Then, 24 h later, the tested compounds were dissolved in DMSO, and the cells were exposed to the different concentrations (131.58–1.028 µM) of the compounds for 72 h. Cisplatin and doxorubicin were used as a positive control. Next, an MTS/phenazine methosulfate (PMS) (Promega, Madison, WI, USA and Sigma, St. Louis, MO, USA respectively) mixture was added to each well and incubated for 1–4 h at 37 °C. The absorbance was read on a microplate reader (Biotek, Winooski, VT, USA) at 490 nm. The cytotoxic activities of the compounds were expressed as an IC50 value. The % inhibition of cell proliferation was calculated using the formula: % Inhibition = [1-(A490test/A490cont)] × 100, where A490test = absorbance of the test sample and A490cont = absorbance of the control sample [88]. The values of the 50% inhibition of the cell proliferation (IC50) were calculated by locating the x-axis values corresponding to one-half of the absorbance values of the sample.

The subject of data set [2] is K-562. Briefly: MTS cell viability (cytotoxic activity) assay, K-562. It counts as cell-based, Human. As to conditions: for IC50: Homo sapiens, K562, K-562, MTS, 72 h, mean ± SD, at least three experiments.
From the text: as §1, §2

For data set [3], the system named is MCF-7. Briefly: MTS cell viability (cytotoxic activity) assay, MCF-7. In kind it is cell-based, Human. As to conditions: for IC50: Homo sapiens, MCF7, MCF-7, MTS, 72 h, mean ± SD, at least three experiments.
From the text: as §1, §2

Data set [4] deals with HUVEC. Briefly: MTS cell viability (cytotoxic activity) assay, non-cancerous HUVEC. It counts as cell-based, Human. As to conditions: Homo sapiens, 72 h, mean ± SD, at least three experiments.
From the text: as §1, §2

For data set [5], the system named is COLO 205, K-562, MCF-7 and HUVEC cell lines. Briefly: MTS cytotoxicity, overall verbal grading over the cell line panel. As to conditions: authors' verbal summary over COLO 205, K-562, MCF-7, HUVEC. In kind it is cell-based, Human.
From the text: as §1, §2

Data set [6] concerns ovarian carcinoma cells (CH1). On the set-up: method as in PMID 23701832. As to conditions: cited from earlier work.
For data set [7], the system named is colorectal (HT29). On the set-up: method as in PMID 23701832, PMID 26503061, PMID 30944714, PMID 27002410, PMID 33676992. As to conditions: read-out: cytotoxic activity HT29; cited from earlier work.
The test system of data set [8] is breast (MDA-MB-231). Further details: method as in PMID 23701832, PMID 26503061, PMID 30944714, PMID 27002410, PMID 33676992. As to conditions: cited from earlier work.
For data set [9], the system named is colon (HCT116). As to conditions: cited from earlier work.
Data set [10] has as its system ovarian (A2780). As to conditions: cited from earlier work.
The subject of data set [11] is cervical (HeLa). As to conditions: cited from earlier work.
In data set [12] the test system is lung (A549). As to conditions: cited from earlier work.
Data set [13] concerns cisplatin-resistant derivatives of the human ovarian (A2780P A2780/RCIS). As to conditions: cited from earlier work.
Data set [14] deals with melanoma (SK-MEL-28). As to conditions: cited from earlier work.
Data set [15] deals with chronic myelogenous leukemia (K562). As to conditions: cited from earlier work.
The test system of data set [16] is MCF-7 breast cancer cell line. As to conditions: cited from earlier work.
The test system of data set [17] is bladder cancer cells (5637). As to conditions: cited from earlier work.
In data set [18] the test system is caspase-3. Briefly: Caspase-3 colorimetric activity assay in COLO 205 cells. As to conditions: COLO 205, 24 h, highest concentration (131.58 µM). In kind it is cell-based, Human. Here is the method:
(§3) The caspase-3, -8, and -9 activities were detected by following the protocol of the caspase-3, -8, -9 colorimetric assay kits (Biovision, K106, K113, K119, Mountain View, CA, USA). The cells treated with mogoltadone (5) for 24 h were harvested and lysed with a RIPA (50 mM Tris-HCl, pH 8.0, 150 mM NaCl, 1% Nonidet P-40, 0.5% sodium deoxycholate and 0.1% SDS) cell lysis buffer. The lysed cells were centrifuged at 22,000 g for 30 min and the supernatant was collected in a tube. The samples (200 µg protein) were incubated with caspase substrates (final concentration, 200 µM) at 37° C for 2 h and read on a microplate reader at 405 nm. The fold-increase in enzyme activity was detected by comparison with the untreated control.

Data set [19] concerns caspase-8. Briefly: Caspase-8 colorimetric activity assay in COLO 205 cells. As to conditions: COLO 205, 24 h, highest concentration (131.58 µM). In kind it is cell-based, Human. Here is the method: as §3
Data set [20] deals with caspase-9. Briefly: Caspase-9 colorimetric activity assay in COLO 205 cells. It counts as cell-based, Human. As to conditions: COLO 205, 24 h, highest concentration (131.58 µM). Here is the method: as §3
The test system of data set [21] is Bcl-XL. Briefly: Western blot, Bcl-XL protein level in COLO 205. It counts as cell-based, Human. As to conditions: COLO 205, 24 h. Here is the method: (§4) To evaluate the effect of mogoltadone (5) on the caspase-3, Bcl-XL and β-catenin protein levels, the COLO 205 cell line was treated with mogoltadone (5) and incubated for 24 h. At the end of the incubation period, the treated cells were harvested. After that, the harvested cells were washed with cold phosphate buffered saline and lysed in a RIPA buffer. The samples were centrifuged at 24,000 g for 45 min at 4° C, and the supernatants were used to determine the procaspase-3, Bcl-XL, β-catenin, and β-actin protein levels by western blot analysis. The cellular proteins were separated on sodium dodecyl sulfate-polyacrylamide gels (SDS-PAGE, AnyKD mini protean TGX precast protein gel, Bio-Rad, Hercules, CA, USA, 4569033). The separated proteins were transferred to the polyvinylidene difluoride (PVDF) membrane using the Trans-Blot Turbo transfer system (Bio-Rad). The membrane was then blocked with a 5% non-fat milk blocking buffer and consecutively incubated with rabbit monoclonal Bcl-XL antibody (1:20,000, ab17884, Abcam), rabbit monoclonal caspase-3 antibody (1:3000, ab3235, Abcam, Cambridge, MA, USA), rabbit monoclonal beta-actin antibody (1:10,000, M01263, BOSTER, Beijing, China), and rabbit polyclonal β-catenin antibody (1/5,000, ab264263, Abcam, Cambridge, MA, USA) overnight at 4° C. […]
For orientation: Immunoblotting shows a protein as a band on a membrane.

Data set [22] deals with procaspase-3. Briefly: Western blot, procaspase-3 protein level in COLO 205. It counts as cell-based, Human. As to conditions: COLO 205, 24 h, significant at 131.58 µM. How it is done:
as §4

Data set [23] concerns β-catenin. Briefly: Western blot, β-catenin protein level in COLO 205. In kind it is cell-based, Human. As to conditions: COLO 205, 24 h. How it is done:
as §4

Data set [24] concerns Bcl-XL. Briefly: Western blot, Bcl-XL protein level in HUVEC. It counts as cell-based, Human.
Data set [25] relates to caspase-3. Briefly: Western blot, caspase-3 protein level in HUVEC. It counts as cell-based, Human. How it is done:
as §4

Data set [26] has as its system β-catenin. Briefly: Western blot, β-catenin protein level in HUVEC. It counts as cell-based, Human.
For data set [27], the system named is stomach (AGS). Further details: method as in PMID 25843566, PMID 20961138, PMID 20628935, PMID 22351980, PMID 25818230. As to conditions: cited from earlier work.

Like-named read-outs stand apart in the source and are kept apart here. A value given as a limit tells only on which side of the number the result lay.

For `CC1=CC[C@@H]2C(C)(C)C(=O)CC[C@@]2(C)[C@@H]1COc1ccc2ccc(=O)oc2c1` [Conferone (1), conferone], the IC50 was 27.6 ± 0.69 µM in data set [1]; 55.5 ± 0.94 µM in [2]; 34 ± 0.68 µM in data set [3]; 46.1 ± 0.99 µM in [4]; 7.8 µM in data set [6] (ovarian carcinoma cells (CH1)); 20 µM in data set [7]. Moreover, the IC50 was 32 µM in data set [9] (HCT116, read-out: cytotoxic activity HCT116); 32 µM in [10] (read-out: cytotoxic activity A2780); 38 µM in [11] (read-out: cytotoxic activity HeLa); 38 µM in data set [12] (read-out: cytotoxic activity A549); 25 µM in data set [13] (A2780P A2780/RCIS, read-out: cytotoxic activity A2780P A2780/RCIS); 64 µM in data set [14] (read-out: cytotoxic activity SK-MEL-28). Also, the IC50 in data set [16] (read-out: cytotoxic activity MCF-7) is over 100 µM. Further, the cytotoxicity in words entry is given as “moderate or strong cytotoxicity” in [5] (listed as 1) and “moderate cytotoxic effect” in data set [5] (listed as conferone (1)). Further, the “cytotoxic activity MDA-MB-231” value in data set [8] was 30 µg/mL. In addition, the “cytotoxic activity K562” value in [15] is listed as 86.12 µg/mL. Moreover, the “cytotoxic effect on bladder cancer cells (5637), in words” value in data set [17] (5637) is “no cytotoxic effect”.
As to `C=C1CCC2C(C)(C)C(=O)CCC2(C)C1COc1ccc2ccc(=O)oc2c1` (centres unmarked) [Mogoltadone (5), mogoltadone], the IC50 is 31.71 ± 0.15 µM in data set [1]; 21.1 ± 0.85 µM in data set [2]; 30.4 ± 0.6 µM in data set [3]; over 200 µM in [4]; over 50 µM in [13] (A2780/RCIS, read-out: cytotoxic effect A2780/RCIS); over 100 µM in data set [16] (read-out: cytotoxic effect MCF-7). Moreover, the “selectivity index K-562” value in [2] (HUVEC versus K-562) is over 12.46. For the same compound, the “selectivity index MCF-7” value in data set [3] (HUVEC versus MCF-7) is over 8.64. Besides, the cytotoxicity in words entry in [5] is listed as “moderate or strong cytotoxicity”. For the same compound, the “increase in caspase-3 activity compared with the control” value in [18] is listed as 4.72 fold. Besides, the “increase in caspase-8 activity compared with the control” value in [19] is 2 fold. In addition, the “increase in caspase-9 activity compared with the control” value in [20] came to 1.97 fold. In addition, the “effect on Bcl-XL level” value in data set [21] is given as “suppressed”. In addition, the “effect on procaspase-3 level” value in data set [22] is recorded as “decreased”. Also, in data set [23], the “effect on β-catenin levels” value is “decreased”. The “effect on Bcl-XL protein level” value in [24] is listed as “did not have a statistically significant effect”. Besides, in data set [25], the “effect on caspase-3 protein level” value is “did not have a statistically significant effect”. The “effect on β-catenin protein level” value in data set [26] is “did not have a statistically significant effect”. In addition, the “cytotoxic effect against CH1, in words” value in data set [6] (ovarian carcinoma cell line (CH1)) was “moderate cytotoxic effects”. Moreover, in data set [12] (ref Valiahdi et al. 29), the “cytotoxic activity against A549, in words” value is “did not find any potent cytotoxic activity”. Further, in data set [13] (A2780/RCIS cells, combination with cisplatin), the “effect of combination with cisplatin on cisplatin cytotoxicity” value is listed as “significantly enhanced the cisplatin cytotoxicity”. Moreover, the “cytotoxic activity against SK-MEL-28, in words” value in data set [14] (ref Valiahdi et al. 29) is reported as “did not find any potent cytotoxic activity”.
In the case of `CC1=CC[C@@H]2C(C)(C)[C@H](O)CC[C@@]2(C)[C@@H]1COc1ccc2ccc(=O)oc2c1` [Feselol (3), feselol], the IC50 in data set [1] was 38.4 ± 0.8 µM; in [2], 72.5 ± 0.74 µM; in data set [3] it was 36 ± 1.29 µM; in data set [4], 38.8 ± 0.83 µM; in [9] (HCT-116, ref Soltani et al. 67, read-out: cytotoxic activity HCT-116), 28 µM; in data set [10] (ref Soltani et al. 67, read-out: cytotoxic activity A2780) it was 20 µM. In addition, the IC50 in [11] (ref Soltani et al. 67, read-out: cytotoxic activity HeLa) is 35 µM; in data set [12] (ref Soltani et al. 67, read-out: cytotoxic activity A549) it was 26 µM. The cytotoxicity in words entry in data set [5] is recorded as “moderate or strong cytotoxicity”. For the same compound, the “cytotoxic activity on HeLa, in words” value in data set [11] is recorded as “did not show any cytotoxic activity”. The “cytotoxic activity on K562, in words” value in [15] is on record as “did not show any cytotoxic activity”. Moreover, the “cytotoxic activity on bladder (TCC, 5637), in words” value in data set [17] (bladder (TCC, 5637)) is reported as “did not show any cytotoxic activity”. For the same compound, in [27], the “cytotoxic activity on stomach (AGS), in words” value was “did not show any cytotoxic activity”.

The values are drawn from publication PMC10305617, “Sesquiterpene Coumarin Ethers with Selective Cytotoxic Activities from the Roots of Ferula huber-morathii Peşmen (Apiaceae) and Unequivocal Determination of the Absolute Stereochemistry of Samarcandin” (Pharmaceuticals, 2023).
